Experiments:
goblet cells = assay: Test for confirming synergetic expectorant effect: number of goblet cells in the air tube after intratracheal LPS; assay type: in vivo, Fischer (F334) rats; settings: for Number of goblet cells: counted three days after LPS; for expectorant effect (number of goblet cells), result in words: summary of Table 1
Text: Improvement of the expectorant effect by using fudosteine and an antipyretic/analgesic in combination was confirmed by the method described below. Seven 12-week-old male Fischer ([…]) rats for one group were used as test animals. The rats were anesthetized with pentobarbital and their skin was disinfected using the Isodine solution for surgery. The trachea of the rats was exposed by midline incision. The injection needle ([…], Hamilton) attached to a Hamilton injection syringe was inserted from the pharynx to inject lipopolysaccharide (LPS, 10 μg/500 μl) into the air tube. The samples of which the components and dose are shown in Table 1 were dissolved or suspended in a 0.5% CMC-Na solution. The solution or suspension was orally administered to the rats three times in total, specifically, 30 minutes before administering LPS, 24 hours after administering LPS, and 48 hours after administering LPS. Three days after administering LPS, the rats were bled to death by cutting the abdominal aorta under pentobarbital anesthesia. A part of the air tube and bronchial tube was removed and fixed with a 10% neutral buffered formalin solution. The fixed bronchial tube was embedded in paraffin according to a conventional method. The air tube was cut into slices in the cross-section. The slices were stained with alcian blue/PAS (AB/PAS). The AB/PAS stained samples of each air tube were microscopically examined to measure the number of goblet cells according to the reported procedure (Enviromn. Tixicol. Pharmacol., vol. 5, p. 173, 1998).

Wistar rats = assay: Test for confirming synergetic antiinflammatory effect: carrageenan footpad edema; assay type: in vivo; settings: for Edema ratio (%): four hours after carrageenan; for antiinflammatory effect, result in words: summary of Table 2
Procedure: Improvement on the antiinflammatory effect by using fudosteine and an antipyretic/analgesic in combination was confirmed by the method described below. Five five-week-old male Wistar rats for one group were used as test animals. The samples of which the components and dose are shown in Table 2 were dissolved or suspended in a 0.5% CMC-Na solution. The solution or suspension was orally administered to the rats once a day in five consecutive days. Two hours after the administration on the last administration day, 0.1 ml of an inflammatory (carrageenan) was hypodermically injected into the right hind footpad of the rats. The limb volume of the rats was measured four hours after injecting the inflammatory. The edema ratio was calculated based on the limb volume before injecting the inflammatory. The rats were coated with a licking prevention hood, followed by measuring the right hind limb volume using a plethysmometer (manufactured by Ugo Basile).

[1] = 100 mg/kg orally once a day for five days

For `CC(=O)Nc1ccc(O)cc1` [Acetaminophen, acetaminophen], the “Number of goblet cells” value (goblet cells; 100 mg/kg orally, three times) was 125.7 ± 2.4, the “Number of goblet cells” value (goblet cells; 200 mg/kg orally, three times) was 122.9 ± 1.7 and the “expectorant effect (number of goblet cells), result in words” value (shortened to “expectorant effect”) (goblet cells) was “did not exhibit an expectorant effect”. The “Edema ratio (%)” value (Wistar rats; [1]) was 70.6 ± 0.68 %, the “Edema ratio (%)” value (Wistar rats; 200 mg/kg orally once a day for five days) was 60.6 ± 0.88 ^b) % and the “antiinflammatory effect, result in words” value (Wistar rats) was “dose-dependent antiinflammatory effect”.

In the case of `N[C@@H](CSCCCO)C(=O)O` [Fudosteine, S-(3-hydroxypropyl)-L-cysteine], the “Number of goblet cells” value (goblet cells; 30 mg/kg orally, three times (30 min before, 24 h and 48 h after LPS)) was 75.7 ± 1.3 and the “expectorant effect” value (goblet cells) was “exhibited an expectorant effect”.

In the case of `CC(C)Cc1ccc(C(C)C(=O)O)cc1` (centres unmarked) [Ibuprofen, ibuprofen], the “Number of goblet cells” value (goblet cells; 50 mg/kg orally, three times) was 124.9 ± 1.8, the “Number of goblet cells” value (goblet cells; 100 mg/kg orally, three times) was 124.3 ± 2.0 and the “expectorant effect” value (goblet cells) was “did not exhibit an expectorant effect”. The “Edema ratio (%)” value (Wistar rats; 50 mg/kg orally once a day for five days) was 70.6 ± 0.89 %, the “Edema ratio (%)” value (Wistar rats; [1]) was 60.6 ± 0.79 ^a) % and the “antiinflammatory effect, result in words” value (Wistar rats) was “dose-dependent antiinflammatory effect”.

Reference: US20040147606A1, “Medicinal compositions” (priority 2001, published 2004)
